Consider 18 compounds from patent publication US9751875B2, “Quinine compounds, and optical isomers, preparation method and medical use thereof” (BEIJING FSWELCOME TECHNOLOGY DEVELOPMENT CO., LTD., priority 2013, dated 2017).

Read-outs that look alike come from different tables or passages of the source.

The test system of assay [1] is tracheal smooth muscle from guinea pigs (contraction induced by 3 × 10^−6 mol/L of CCh). Description: Antagonism in vitro of contraction of isolated tracheal smooth muscle from guinea pigs induced by carbachol (CCh). In kind it is cell-based, guinea pig.
Assay [2] shares this test system. The assay is described as above. To be noted: cumulative dosing. It counts as cell-based, guinea pig. The text has this:
Preparation of the Isolated Tracheal Smooth Muscle Specimen from a Guinea Pig:
After a guinea pig was narcotized with urethane, the trachea between the throat and carina of the guinea pig was taken out rapidly, and placed in the Krebs-Henseleit (K-H) solution (composition (g/L): NaCl 6.92, KCl 0.35, CaCl2 0.28, KH2PO4 0.16, MgSO4.7H2O 0.4568, NaHCO3 2.1, Glucose 2.0) with a mixture gas of 5% CO2 and 95% O2 purged. After loose connective tissues and fats around the trachea were separated, the trachea was cut into trachea pieces having a width of about 3 mm and a length of 20 mm by a surgical scissor, with both ends of the trachea piece ligated with 4˜0 silk suture, and then placed into a thermostatic bath containing 5 ml of K—H solution (pH 7.4) at 37° C., with the mixture gas of 5% CO2 and 95% O2 continuously purged. A muscle tension transducer was connected to the upper end so as to apply 1.0 g of resting tension to the specimen, the change of the tension was recorded, the culture solution was replaced every 20 min, and the test was started after being balanced for 60 min.
Administration method: After the trachea piece was stabilized, 3×10^−6 mol/L of CCh was added into a bath, and after the contractile tension of the trachea piece reached a peak level, the example compounds, ipratropium bromide and tiotropium bromide were added into a Magnus bath by a cumulative dosing regimen with a dosage of 10^−9˜10^−5 mol, respectively, and the diastolic condition of the trachea piece was observed: if no response occurred (below the threshold concentration), a next dosage was continued to be added in sequence; if response occurred, after it reached a diastolic plateau, a next dosage was further added. The above operation was repeated until the contractile curve reached the minimum value. Finally, 10^−6 mol/L of isoprenaline was added so that the maximum relaxation would be reached and the curve was recorded.
Statistical approach: The result was expressed as mean ±standard deviation, and counted by Sigma Stat statistical package. The data was analyzed by using variance analysis, the comparison among means of a plurality of specimen was performed by using Student-Newman-Keuls(SNK) test; statistical significant level α=0.05 (bilateral).
Compounds shown in Table 5 were further prepared according to the present invention, and their IC50 […] of resistance to the contraction of tracheal smooth muscle from guinea pigs induced by a concentration of 3×10^−6 mol/L of CCh was determined.

Where [3] appears, read: Cavia porcellus, 3 × 10^−6 mol/L of CCh, read-out: IC50 (μM), antagonism in vitro against the contraction of the tracheal smooth muscle induced by CCh.
[4] abbreviates: read-out: IC50 (μM), antagonism in vitro against the contraction of the tracheal smooth muscle induced by CCh, 3 × 10^−6 mol/L of CCh.
The mark [5] stands for this setting: Cavia porcellus, read-out: IC50 (μM), antagonism in vitro against the contraction of the tracheal smooth muscle induced by CCh, 3 × 10^−6 mol/L of CCh.
Where [6] appears, read: 3 × 10^−6 mol/L of CCh, read-out: IC50 (μM), antagonism in vitro against the contraction of the tracheal smooth muscle induced by CCh.

Turning to `OC(CO[C@H]1C[N+]2(CCCOc3ccccc3)CCC1CC2)(c1ccccc1)C1CC1` (stereo partly drawn) [Example 19, (2R,3S)-3-[(2-cyclopropyl-2-hydroxyl-2-phenyl)ethoxyl]-1-(3-phenoxypropyl)-1-azabicyclo[2,2,2]octane bromide], in assay [1], the “Onset time” value amounted to 6.68 min and the “Time for eliminating inhibition effect (min)” value is on record as “more than 300 min”. Further, in assay [2] (setting [3]), the IC50 stood at 1.76 µM.
With `OC(CO[C@H]1C[N+]2(CCCOc3ccccc3)CCC1CC2)(c1ccccc1)C1CC1.[Br-]` (stereo partly drawn) [Example 20, (2S,3S)-3-[(2-cyclopropyl-2-hydroxyl-2-phenyl)ethoxyl]-1-(3-phenoxypropyl)-1-azabicyclo[2,2,2]octane bromide], in assay [1], the “Onset time” value was 6.32 min and the “Time for eliminating inhibition effect (min)” value is on record as “more than 300 min”. Further, the IC50 in assay [2] (setting [4]) came to 2.35 µM.
As for `OC(CO[C@@H]1C[N+]2(CCCOc3ccccc3)CCC1CC2)(c1ccccc1)C1CC1.[Br-]` (stereo partly drawn) [Example 21, (2S,3R)-3-[(2-cyclopropyl-2-hydroxyl-2-phenyl)ethoxyl]-1-(3-phenoxypropyl)-1-azabicyclo[2,2,2]octane bromide], in assay [1], the “Onset time” value worked out at 6.79 min and the “Time for eliminating inhibition effect (min)” value was “more than 300 min”. In addition, the IC50 in assay [2] (setting [4]) stood at 1.35 µM.
In the same order, the values of `OC(CO[C@@H]1C[N+]2(CCCOc3ccccc3)CCC1CC2)(c1ccccc1)C1CC1.[Br-]` (stereo partly drawn) [Example 22, (2R,3R)-3-[(2-cyclopropyl-2-hydroxyl-2-phenyl)ethoxyl]-1-(3-phenoxypropyl)-1-azabicyclo[2,2,2]octane bromide] are 6.45 min, “more than 300 min” and 0.373 µM.
For `OC(CO[C@H]1C[N+]2(CCCOc3ccccc3)CCC1CC2)(c1ccccc1)C1CC1` (stereo partly drawn) [Example 24, (2R,3R),(2S,3S) Configuration of 3-[(2-cyclopropyl-2-hydroxyl-2-phenyl)ethoxyl]-1-(3-phenoxypropyl)-1-azabicyclo[2,2,2]octane bromide], in assay [1], the “Onset time” value worked out at 6.58 min and the “Time for eliminating inhibition effect (min)” value is “more than 300 min”. Besides, the IC50 in assay [2] (setting [3]) is 0.451 µM.
Regarding `OC(CO[C@@H]1C[N+]2(CCOc3ccccc3)CCC1CC2)(c1ccccc1)C1CCCC1.[Br-]` (stereo partly drawn) [Example 25, (2S,3R)-3-[(2-cyclopentyl-2-hydroxyl-2-phenyl)ethoxyl]-1-(2-phenoxyethyl)-1-azabicyclo[2,2,2]octane bromide], in assay [1], the “Onset time” value is 6.36 min and the “Time for eliminating inhibition effect (min)” value is recorded as “more than 300 min”. In assay [2] (setting [5]), the IC50 stood at 0.867 µM.
`OC(CO[C@@H]1C[N+]2(COc3ccccc3)CCC1CC2)(c1ccccc1)C1CCCC1.[Br-]` (stereo partly drawn) [Example 27, (2R,3R)-3-[(2-cyclopentyl-2-hydroxyl-2-phenyl)ethoxyl]-1-phenoxymethyl-1-azabicyclo[2,2,2]octane bromide]: in assay [1], the “Onset time” value is 5.89 min and the “Time for eliminating inhibition effect (min)” value is “more than 300 min”. For the same compound, the IC50 in assay [2] (setting [5]) came out at 0.0363 µM.
Take `OC(CO[C@@H]1C[N+]2(COCOc3ccccc3)CCC1CC2)(c1ccccc1)C1CCCC1.[Cl-]` (stereo partly drawn) [Example 28, (2R,3R)-3-[(2-cyclopentyl-2-hydroxyl-2-phenyl)ethoxyl]-1-phenoxymethoxymethyl-1-azabicyclo[2,2,2]octane chloride]: in assay [1], the “Onset time” value came out at 6.06 min and the “Time for eliminating inhibition effect (min)” value is given as “more than 300 min”. In addition, the IC50 in assay [2] (setting [3]) amounted to 0.0264 µM.
As to `OC(COC1C[N+]2(CCCOc3ccccc3)CCC1CC2)(c1cccc2ccccc12)C1CCCC1.[Br-]` [Example 29, (2R,3R)-3-[(2-cyclopentyl-2-hydroxyl-2-naphthyl)ethoxyl]-1-(3-phenoxypropyl)-1-azabicyclo[2,2,2]octane bromide], in assay [1], the “Onset time” value came out at 7.14 min and the “Time for eliminating inhibition effect (min)” value is listed as “more than 300 min”. Moreover, the IC50 in assay [2] (setting [5]) came out at 0.723 µM.
The corresponding values for `OC(COC1C[N+]2(CCCOc3ccccc3)CCC1CC2)(c1ccccc1Cl)C1CCCC1.[Br-]` [Example 30, (2R,3R)-3-[(2-cyclopentyl-2-hydroxyl-2-o-chlorophenyl)ethoxyl]-1-(3-phenoxypropyl)-1-azabicyclo[2,2,2]octane bromide] are 5.98 min, “more than 300 min” and 0.0371 µM.
The corresponding values for `OC(COC1C[N+]2(CCCOc3ccccc3)CCC1CC2)(c1cccnc1)C1CCCC1.[Br-]` [Example 31, (2R,3R)-3-[(2-cyclopentyl-2-hydroxyl-2-(3-pyridyl))ethoxyl]-1-(3-phenoxypropyl)-1-azabicyclo[2,2,2]octane bromide] are 6.37 min, “more than 300 min” and 0.0206 µM.
On to `OC(COC1C[N+]2(CCCOc3ccccc3)CCC1CC2)(c1ccco1)C1CCCC1.[Br-]` [Example 32, (2R,3R)-3-[(2-cyclopentyl-2-hydroxyl-2-(2-furyl))ethoxyl]-1-(3-phenoxypropyl)-1-azabicyclo[2,2,2]octane bromide], for which, in assay [1], the “Onset time” value came out at 5.85 min and the “Time for eliminating inhibition effect (min)” value was “more than 300 min”. In assay [2] (setting [5]), the IC50 was determined as 0.0379 µM.
For the compound `COC(COC1C[N+]2(CCCOc3ccccc3)CCC1CC2)(c1cccnc1)C1CCCC1.[Br-]` [Example 33, (2R,3R)-3-[(2-cyclopentyl-2-methoxyl-2-(3-pyridyl))ethoxyl]-1-(3-phenoxypropyl)-1-azabicyclo[2,2,2]octane bromide], in assay [1], the “Onset time” value is listed as 6.17 min and the “Time for eliminating inhibition effect (min)” value is reported as “more than 300 min”. The IC50 in assay [2] (setting [5]) was found to be 0.139 µM.
With `CC(C)[N+]1(C)[C@@H]2CC[C@H]1CC(OC(=O)C(CO)c1ccccc1)C2.[Br-]` (stereo partly drawn) [ipratropium bromide, reference compound], in assay [1], the “Onset time” value was 6.82 min and the “Time for eliminating inhibition effect” value was 185 min. Further, the IC50 in assay [2] (setting [6]) was 0.0361 µM.
In the case of `C[N+]1(C)[C@@H]2C[C@@H](OC(=O)C(O)(c3cccs3)c3cccs3)C[C@H]1[C@@H]1O[C@@H]12` [tiotropium bromide, reference compound], in assay [1], the “Onset time” value came to 30.37 min and the “Time for eliminating inhibition effect (min)” value is “more than 300 min”. In addition, the IC50 in assay [2] (setting [5]) turned out to be 0.0142 µM.
As for “(2R,3R),(2S,3S) Configuration of 3-[(2-cyclopentyl-2-hydroxyl-2-phenyl)ethoxyl]-1-(3-phenoxypropyl)-1-azabicyclo[2,2,2]octane bromide [Example 6]”, in assay [1], the “Onset time” value is reported as 6.61 min and the “Time for eliminating inhibition effect (min)” value is “more than 300 min”. Besides, in assay [2] (setting [6]), the IC50 is 0.156 µM.
Consider “(2R,3R),(2S,3S)-3-[(2-cyclohexyl-2-hydroxyl-2-phenyl)ethoxyl]-1-(3-phenoxypropyl)-1-azabicyclo[2,2,2]octane bromide [Example 12]”, for which, in assay [1], the “Onset time” value was 7.13 min and the “Time for eliminating inhibition effect (min)” value is “more than 300 min”. Also, the IC50 in assay [2] (setting [6]) was determined as 0.251 µM.
Turning to “(2R,3S),(2S,3R)-3-[(2-cyclopropyl-2-hydroxyl-2-phenyl)ethoxyl]-1-(3-phenoxypropyl)-1-azabicyclo[2,2,2]octane bromide [Example 23]”, in assay [1], the “Onset time” value is listed as 6.78 min and the “Time for eliminating inhibition effect (min)” value is given as “more than 300 min”. In addition, the IC50 in assay [2] (setting [6]) came to 2.02 µM.
